Reference: article PMC9457941, “Synthesis and Kinase Inhibitory Potencies of Pyrazolo[3,4-g]isoquinolines” (Molecules, 2022)
Where two headings read alike, the source gives them in different places.

Legend:
Format in all cases: biochemical
CDK9/CyclinT = target: T1, CDK9/CyclinT (Homo sapiens, UniProt P50750); test: ADP-Glo kinase inhibition assay, CDK9/CyclinT; conditions: for remaining activity at 1 µM: read-out: CDK9 % residual activity at 1 μM; for remaining activity at 10 µM: read-out: CDK9 % residual activity at 10 μM; for IC50: 10 μM ATP, duplicate
T1 construct: host or cells: Sf9 insect cells (baculovirus)
T1 sequence (O60563 whole entry): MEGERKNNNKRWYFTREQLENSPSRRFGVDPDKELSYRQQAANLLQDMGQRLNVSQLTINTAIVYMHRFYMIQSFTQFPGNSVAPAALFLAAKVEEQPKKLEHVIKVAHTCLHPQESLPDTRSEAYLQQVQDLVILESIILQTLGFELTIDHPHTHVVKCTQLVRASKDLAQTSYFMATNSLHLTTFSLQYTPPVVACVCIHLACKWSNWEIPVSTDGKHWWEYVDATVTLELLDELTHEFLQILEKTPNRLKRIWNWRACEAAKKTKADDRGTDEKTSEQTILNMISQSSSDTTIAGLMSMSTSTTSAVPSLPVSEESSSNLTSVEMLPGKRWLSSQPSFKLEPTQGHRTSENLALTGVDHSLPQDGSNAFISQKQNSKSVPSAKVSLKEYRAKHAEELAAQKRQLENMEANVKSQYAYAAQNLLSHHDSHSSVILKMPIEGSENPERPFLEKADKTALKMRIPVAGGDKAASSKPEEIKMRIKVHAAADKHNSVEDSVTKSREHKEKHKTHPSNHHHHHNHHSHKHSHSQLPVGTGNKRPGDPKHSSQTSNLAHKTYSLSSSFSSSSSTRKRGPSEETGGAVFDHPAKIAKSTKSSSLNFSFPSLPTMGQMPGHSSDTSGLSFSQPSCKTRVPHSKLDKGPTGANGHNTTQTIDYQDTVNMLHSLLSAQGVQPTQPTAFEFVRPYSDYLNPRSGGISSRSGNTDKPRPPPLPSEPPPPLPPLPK
T1 sequence (P50750 whole entry): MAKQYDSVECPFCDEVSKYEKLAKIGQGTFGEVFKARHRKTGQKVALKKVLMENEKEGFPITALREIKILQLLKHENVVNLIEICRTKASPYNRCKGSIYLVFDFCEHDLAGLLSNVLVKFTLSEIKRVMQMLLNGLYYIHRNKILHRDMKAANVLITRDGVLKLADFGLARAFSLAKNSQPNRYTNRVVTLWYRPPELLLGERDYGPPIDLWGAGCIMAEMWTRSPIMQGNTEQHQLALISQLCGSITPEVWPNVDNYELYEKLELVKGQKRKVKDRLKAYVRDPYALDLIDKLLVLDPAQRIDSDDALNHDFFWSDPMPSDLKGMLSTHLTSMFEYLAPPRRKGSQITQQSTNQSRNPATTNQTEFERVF
Procedure: (§1) Kinase enzymatic activities were assayed in 384 well plates using the ADP-GloTM assay kit (Promega, Madison, WI, USA) according to the manufacturer’s guidance. Briefly, the reactions were carried out in a final volume of 6 μL for 30 min at 30 °C in an appropriate kinase buffer (10 mM MgCl2, 1 mM EGTA, 1 mM DTT, 25 mM Tris-HCl pH 7.5, 50 μg/mL heparin), with either protein or peptide as substrate in the presence of 10 μM ATP (40 mM Tris pH 7.5, 20 mM MgCl2 and 0.1 mg/mL of BSA). Afterward, 6 μL of ADP-GloTM Kinase Reagent was added to stop the kinase reaction. After an incubation time of 50 min at room temperature (RT), 12 μL of Kinase Detection Reagent was added for 1 h at RT. The transmitted signal was measured using the Envision (Perkin Elmer, Waltham, MA, USA) microplate luminometer and expressed in relative light unit (RLU). In order to determine the half maximal inhibitory concentration (IC50), the assays were performed in duplicate in the absence or presence of increasing doses of the tested compounds. GraphPad Prism6 software (GraphPad Software, San Diego, CA, USA) was used to fit dose–response curves and to determine the IC50 values. Kinase activities are expressed in the percentage of maximal activity, i.e., measured in the absence of an inhibitor. Peptide substrates were obtained from Proteogenix (Schiltigheim, France).
(§2) The following protein kinases were analyzed in this study: CDK5/p25 (human, recombinant, expressed in bacteria) was assayed with 0.8 μg/μL of histone H1 as substrate; CDK9/CyclinT (human, recombinant, expressed by baculovirus in Sf9 insect cells) were assayed with 0.27 μg/μL of the following peptide: […], as substrate; CK1ε (human, recombinant, expressed by baculovirus in Sf9 insect cells) was assayed with 0.022 μg/μL of the following peptide: […]pAYSITA (“Sp” stands for phosphorylated serine) as CK1-specific substrate; GSK3β (human, recombinant, expressed by baculovirus in Sf9 insect cells) were assayed with 0.010 μg/μL of GS-1 peptide, a GSK-3-selective substrate ([…]pEDEEE); Haspin-kd (human, kinase domain, amino acids 470–798, recombinant, expressed in bacteria) was assayed with 0.007 μg/μL of histone H3 (1–21) peptide ([…]) as substrate; Pim-1 (human proto-oncogene, recombinant, expressed in bacteria) was assayed with 0.8 μg/μL of histone H1 as substrate; MmCLK1 (from Mus musculus, recombinant, expressed in bacteria) was assayed with 0.027 μg/μL of the following peptide: […] as substrate; RnDYRK1A-kd (Rattus norvegicus, amino acids 1–499 including the kinase domain, recombinant, expressed in bacteria, DNA vector kindly provided by Dr. W. Becker, Aachen, Germany) was assayed with 0.033 μg/μL of the following peptide: […] as substrate.

RnDYRK1A-kd = target: T2, RnDYRK1A-kd (Rattus norvegicus, UniProt Q63470); test: ADP-Glo kinase inhibition assay, DYRK1A; conditions: for remaining activity at 1 µM: read-out: DYRK1A % residual activity at 1 μM; for remaining activity at 10 µM: read-out: DYRK1A % residual activity at 10 μM
T2 construct: RnDYRK1A-kd (Rattus norvegicus, amino acids 1–499 including the kinase domain, recombinant, expressed in bacteria); made in house; host or cells: bacteria
Procedure: as §1, §2

MmCLK1 = target: T3, MmCLK1 (Mus musculus, UniProt P22518); test: ADP-Glo kinase inhibition assay, CLK1; conditions: for remaining activity at 1 µM: read-out: CLK1 % residual activity at 1 μM; for remaining activity at 10 µM: read-out: CLK1 % residual activity at 10 μM
T3 construct: host or cells: bacteria
T3 sequence (P22518 whole entry): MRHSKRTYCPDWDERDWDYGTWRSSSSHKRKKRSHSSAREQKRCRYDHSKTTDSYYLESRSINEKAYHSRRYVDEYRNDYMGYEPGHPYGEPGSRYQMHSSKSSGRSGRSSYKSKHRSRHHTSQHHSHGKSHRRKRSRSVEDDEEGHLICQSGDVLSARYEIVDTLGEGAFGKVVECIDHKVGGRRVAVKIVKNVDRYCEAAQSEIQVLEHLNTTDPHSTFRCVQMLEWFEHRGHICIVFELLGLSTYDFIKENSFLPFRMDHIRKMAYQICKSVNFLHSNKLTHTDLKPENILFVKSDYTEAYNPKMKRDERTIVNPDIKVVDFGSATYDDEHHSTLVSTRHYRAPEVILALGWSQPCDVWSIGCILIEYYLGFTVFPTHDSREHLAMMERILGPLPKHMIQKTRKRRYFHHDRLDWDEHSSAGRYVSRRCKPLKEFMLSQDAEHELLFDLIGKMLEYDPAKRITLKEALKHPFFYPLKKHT
Procedure: as §1, §2

CK1ε = target: T4, CK1ε (Homo sapiens, UniProt P49674); test: ADP-Glo kinase inhibition assay, CK1ε; conditions: 10 μM ATP, duplicate; for remaining activity at 1 µM: 1 μM compound, read-out: CK1 % residual activity at 1 μM; for remaining activity at 10 µM: 10 μM compound, read-out: CK1 % residual activity at 10 μM
T4 construct: host or cells: Sf9 insect cells (baculovirus)
T4 sequence (P49674 whole entry): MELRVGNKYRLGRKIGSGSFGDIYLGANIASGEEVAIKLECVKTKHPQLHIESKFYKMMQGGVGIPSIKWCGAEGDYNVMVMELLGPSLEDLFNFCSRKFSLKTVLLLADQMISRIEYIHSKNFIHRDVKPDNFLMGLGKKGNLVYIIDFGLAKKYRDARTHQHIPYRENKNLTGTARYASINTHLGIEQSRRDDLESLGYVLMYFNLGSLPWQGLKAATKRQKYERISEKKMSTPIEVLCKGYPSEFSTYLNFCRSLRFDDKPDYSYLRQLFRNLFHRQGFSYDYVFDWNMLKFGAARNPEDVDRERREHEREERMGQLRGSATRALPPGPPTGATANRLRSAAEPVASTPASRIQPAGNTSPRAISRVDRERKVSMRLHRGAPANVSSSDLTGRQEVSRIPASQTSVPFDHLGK
Procedure: as §1, §2

Pim-1 = target: T5, Pim-1 (Homo sapiens, UniProt P11309); test: ADP-Glo kinase inhibition assay, Pim-1; conditions: 10 μM ATP, duplicate; for remaining activity at 1 µM: 1 μM compound, read-out: PIM1 % residual activity at 1 μM; for remaining activity at 10 µM: 10 μM compound, read-out: PIM1 % residual activity at 10 μM
T5 construct: host or cells: bacteria
T5 sequence (P11309 whole entry): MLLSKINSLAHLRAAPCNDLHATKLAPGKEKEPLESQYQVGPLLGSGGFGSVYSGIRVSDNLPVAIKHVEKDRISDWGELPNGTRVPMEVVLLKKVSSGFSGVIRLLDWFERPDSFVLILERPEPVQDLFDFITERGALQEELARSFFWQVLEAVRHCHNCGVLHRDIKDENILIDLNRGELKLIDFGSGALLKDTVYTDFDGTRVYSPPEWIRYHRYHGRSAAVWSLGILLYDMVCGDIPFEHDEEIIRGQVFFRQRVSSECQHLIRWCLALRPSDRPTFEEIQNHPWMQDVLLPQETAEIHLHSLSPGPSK
Procedure: as §1, §2

GSK3β = target: T6, GSK3β (Homo sapiens, UniProt P49841); test: ADP-Glo kinase inhibition assay, GSK3β; conditions: for remaining activity at 1 µM: read-out: GSK3 % residual activity at 1 μM; for remaining activity at 10 µM: read-out: GSK3 % residual activity at 10 μM; for IC50: 10 μM ATP, duplicate, read-out: GSK3 IC50
T6 construct: host or cells: Sf9 insect cells (baculovirus)
T6 sequence (P49841 whole entry): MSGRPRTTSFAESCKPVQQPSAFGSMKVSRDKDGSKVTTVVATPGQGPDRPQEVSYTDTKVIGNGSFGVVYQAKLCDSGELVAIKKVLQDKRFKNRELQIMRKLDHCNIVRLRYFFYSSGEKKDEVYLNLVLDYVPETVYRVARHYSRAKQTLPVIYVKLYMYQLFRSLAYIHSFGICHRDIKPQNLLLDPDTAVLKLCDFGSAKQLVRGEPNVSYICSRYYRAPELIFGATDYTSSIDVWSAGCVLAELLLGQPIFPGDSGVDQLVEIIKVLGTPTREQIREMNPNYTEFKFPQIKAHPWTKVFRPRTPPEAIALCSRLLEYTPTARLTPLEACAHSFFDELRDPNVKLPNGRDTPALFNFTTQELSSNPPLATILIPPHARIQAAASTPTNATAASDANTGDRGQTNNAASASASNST
Procedure: as §1, §2

CDK5/p25 = target: T7, CDK5/p25 (Homo sapiens, UniProt Q00535); test: ADP-Glo kinase inhibition assay, CDK5/p25; conditions: for remaining activity at 1 µM: read-out: CDK5 % residual activity at 1 μM; for remaining activity at 10 µM: read-out: CDK5 % residual activity at 10 μM
T7 construct: host or cells: bacteria
T7 sequence (Q00535 whole entry): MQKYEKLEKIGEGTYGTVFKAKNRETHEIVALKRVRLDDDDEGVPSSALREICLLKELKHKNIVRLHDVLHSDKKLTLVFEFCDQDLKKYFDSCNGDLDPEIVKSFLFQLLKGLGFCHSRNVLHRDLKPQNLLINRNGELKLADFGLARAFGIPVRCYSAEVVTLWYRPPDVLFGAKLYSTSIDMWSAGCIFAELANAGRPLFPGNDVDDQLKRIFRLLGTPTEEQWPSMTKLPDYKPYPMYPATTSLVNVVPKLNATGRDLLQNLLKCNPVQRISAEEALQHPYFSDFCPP
T7 sequence (Q15078 99-307, further chain): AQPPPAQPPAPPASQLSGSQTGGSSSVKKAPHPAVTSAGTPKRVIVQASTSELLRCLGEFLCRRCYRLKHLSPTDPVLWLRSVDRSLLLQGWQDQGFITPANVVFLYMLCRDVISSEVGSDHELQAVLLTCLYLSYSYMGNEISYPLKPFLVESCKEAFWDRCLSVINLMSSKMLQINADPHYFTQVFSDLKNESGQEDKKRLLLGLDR
Procedure: as §1, §2

[1] = target: T8, Haspin-kd (human, kinase domain, amino acids 470–798) (Homo sapiens, UniProt Q8TF76); test: ADP-Glo kinase inhibition assay, Haspin; conditions: for IC50: 10 μM ATP, duplicate; for remaining activity at 1 µM: read-out: Haspin % residual activity at 1 μM; for remaining activity at 10 µM: read-out: Haspin % residual activity at 10 μM
T8 construct: Haspin-kd (human, kinase domain, amino acids 470–798, recombinant, expressed in bacteria); host or cells: bacteria
T8 sequence (Q8TF76 470-798): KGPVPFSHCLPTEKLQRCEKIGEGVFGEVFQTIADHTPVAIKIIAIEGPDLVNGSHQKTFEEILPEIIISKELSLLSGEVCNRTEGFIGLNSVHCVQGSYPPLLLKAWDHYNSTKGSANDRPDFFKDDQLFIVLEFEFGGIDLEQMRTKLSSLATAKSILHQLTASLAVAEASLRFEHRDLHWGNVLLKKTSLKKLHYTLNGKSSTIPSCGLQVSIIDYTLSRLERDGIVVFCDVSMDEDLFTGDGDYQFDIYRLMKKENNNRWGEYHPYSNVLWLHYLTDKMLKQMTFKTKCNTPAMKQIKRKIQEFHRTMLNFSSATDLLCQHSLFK
Procedure: as §1

[2] = 10 μM ATP, duplicate, read-out: DYRK1A IC50
[3] = 10 μM ATP, duplicate, read-out: CLK1 IC50

Row | Structure (SMILES) | remaining activity at 1 µM (CDK9/CyclinT) [%] | remaining activity at 10 µM (CDK9/CyclinT) [%] | remaining activity at 1 µM (RnDYRK1A-kd) [%] | remaining activity at 10 µM (RnDYRK1A-kd) [%] | remaining activity at 1 µM (MmCLK1) [%] | remaining activity at 10 µM (MmCLK1) [%] | remaining activity at 1 µM (CK1ε) [%] | remaining activity at 10 µM (CK1ε) [%] | remaining activity at 1 µM (Pim-1) [%] | remaining activity at 10 µM (Pim-1) [%] | remaining activity at 1 µM (GSK3β) [%] | remaining activity at 10 µM (GSK3β) [%] | remaining activity at 1 µM (CDK5/p25) [%] | remaining activity at 10 µM (CDK5/p25) [%] | IC50 [1] [nM] | remaining activity at 1 µM [1] [%] | remaining activity at 10 µM [1] [%] | IC50 (RnDYRK1A-kd; [2]) [nM] | IC50 (MmCLK1; [3]) [nM] | IC50 (CDK9/CyclinT) [nM] | other results
1 | O=[N+]([O-])c1c2ccncc2cc2cn[nH]c12 [1a’] | 86 | 48 | 68 | 25 | 90 | 30 | 100 | 64 | 90 | 85 | 99 | 50 | 91 | 62 | 154 | 32 | 23 | – | – | – | IC50 (RnDYRK1A-kd; assumed on the basis of % of inhibition at 1 μM (less than 50%), read-out: DYRK1A IC50 (assumed)): > 1000 nM; IC50 (MmCLK1; assumed on the basis of % of inhibition at 1 μM (less than 50%), read-out: CLK1 IC50 (assumed)): > 1000 nM
2 | Cn1ncc2cc3cnccc3c([N+](=O)[O-])c21 [Compound 1b, 1-Methyl-9-nitro-1H-pyrazolo[3,4-g]isoquinoline] | 57 | 35 | 41 | 11 | 42 | 10 | 88 | 53 | 100 | 54 | 73 | 33 | 95 | 43 | 57 | 26 | 9 | 681 | 71 | – | –
3 | CCn1ncc2cc3cnccc3c([N+](=O)[O-])c21 [Compound 1c, 1-Ethyl-9-nitro-1H-pyrazolo[3,4-g]isoquinoline] | 46 | 23 | 44 | 18 | 25 | 6 | 90 | 58 | 100 | 70 | 53 | 19 | 94 | 79 | 66 | 38 | 15 | 1110 | 166 | 428 | –
4 | CCn1ncc2cc3cnccc3c(N)c21 [Compound 2c, 1-Ethyl-1H-pyrazolo[3,4-g]isoquinolin-9-amine] | 80 | 50 | 23 | 6 | 34 | 8 | 84 | 48 | 91 | 60 | 82 | 40 | 65 | 28 | 62 | 17 | 3 | 250 | 564 | – | Selectivity Index (SI) Haspin vs. DYRK1A ([1]; Haspin vs. DYRK1A, which was more inhibited than CLK1): 4.0
5 | CCn1ncc2c(C)c3cnccc3c([N+](=O)[O-])c21 [Compound 3a, 1-Ethyl-4-methyl-9-nitro-1H-pyrazolo[3,4-g]isoquinoline] | 43 | 14 | 73 | 13 | 13 | 0 | 89 | 45 | 100 | 97 | 39 | 9 | 64 | 35 | 167 | 20 | 8 | – | 101 | 789 | IC50 (GSK3β): 1080 nM
6 | CCc1c2cnccc2c([N+](=O)[O-])c2c1cnn2CC [Compound 3b, 1,4-Diethyl-9-nitro-1H-pyrazolo[3,4-g]isoquinoline] | 25 | 0 | 100 | 9 | 19 | 0 | 82 | 25 | 100 | 89 | 28 | 3 | 33 | 16 | – | 63 | 10 | – | – | – | inhibition at 1 µM ([1]; read-out: Haspin inhibition at 1 μM, 1 μM compound, % inhibition): ≤ 50%
7 | CCCc1c2cnccc2c([N+](=O)[O-])c2c1cnn2CC [Compound 3c, 1-Ethyl-9-nitro-4-propyl-1H-pyrazolo[3,4-g]isoquinoline] | 18 | 4 | 95 | 41 | 23 | 4 | 81 | 35 | 86 | 88 | 12 | 5 | 54 | 10 | 497 | 25 | 17 | – | 363 | 322 | IC50 (GSK3β): 218 nM
